Data reported in publication PMC12292862 (Biomedicines, 2025).
“Also recorded” adds a separate entry of the source. Marks after values point to notes of the source that are not given here.

Key:
[1] = tested on: superoxide dismutase (SOD); experiment: Paw tissue oxidative stress biomarker SOD; assay type: in vivo, rat; details: carrageenan rats, 200 mg/kg i.p.
Description: (§1) The selective pro-inflammatory cytokines were measured quantitatively using rat-specific Enzyme-Linked Immunosorbent Assay (ELISA) kits from Thermo Scientific™ (Waltham, MA, USA) with CAT. No. ERCRP for CRP; from Elabscience with Cat. No. E-EL-R2856 for TNF-α and with Cat. No. E-EL-R0011 for IL-1α; from CUSABIO, Houston, TX, USA, with Cat. No. CSB-E04640r for IL-6; and from My BioSource Co, USA, with Cat. No. MBS825017 for IL-1β, with Cat. No. MBS753621 for rat cyclooxygenase 1, and with Cat. No. MBS266603 for rat cyclooxygenase 2. Meanwhile, an ovine COX inhibitor-screening in vitro assay (item number 760111) was obtained from Cayman Chemical (Ann Arbor, MI, USA). We purchased malondialdehyde (MDA), glutathione (GSH), and superoxide dismutase (SOD) detection kits from Nanjing Jiancheng Bio-Technology Co. Ltd. (Nanjing, China).
(§2) At the end of the experiments, the rats were subjected to anesthesia with chloroform and then sacrificed. Blood was obtained via heart puncture for biochemical analysis. Following the animals’ sacrifice, the paws were taken out, decalcified, and stored in a 10% formalin solution. To prepare the tissue samples, they were sliced into thicknesses of 5 µm. Hematoxylin and eosin dyes were used to create the histology slides, which were then examined using a photomicroscope (Meiji Techno®, Iruma, Japan) for pathological alterations. The presence of inflammation was documented. Protease/phosphatase inhibitor cocktail in cold phosphate-buffered saline (1:4) (pH 7, 0.01 mol/L) (Cat. No. PPC1010, Sigma-Aldrich) was used to homogenize each rat’s paw piece in a glass homogenizer. After filtering and centrifuging the resultant homogenate for five minutes at 5000× g, oxidative stress biomarkers like GSH, SOD, and MDA were measured. The trials were repeated three times.

[2] = tested on: IL-1α; experiment: Serum IL-1α (ELISA) in carrageenan-injected rats; assay type: in vivo, rat; details: compounds 200 mg/kg i.p., indomethacin 10 mg/kg, mean ± SD
Description: as §1, §2

[3] = tested on: glutathione (GSH); experiment: Paw tissue oxidative stress biomarker GSH; assay type: in vivo, rat; details: carrageenan rats, 200 mg/kg i.p., result in words
Description: as §1, §2

[4] = tested on: IL-1β; experiment: Serum IL-1β (ELISA) in carrageenan-injected rats; assay type: in vivo, rat; details: compounds 200 mg/kg i.p., indomethacin 10 mg/kg, mean ± SD
Description: as §1, §2

[5] = tested on: IL-6; experiment: Serum IL-6 (ELISA) in carrageenan-injected rats; assay type: in vivo, rat; details: compounds 200 mg/kg i.p., indomethacin 10 mg/kg, mean ± SD
Description: as §1, §2

[6] = tested on: rat cyclooxygenase 2; experiment: COX-2 level in carrageenan-injected paw (ELISA); assay type: in vivo; details: compounds 200 mg/kg i.p., indomethacin 10 mg/kg, mean ± SD
Description: as §1, with “Meanwhile, an ovine COX inhibitor-screening in vitro assay (item number 760111) was obtained from Cayman Chemical (Ann Arbor, MI, USA).” left out
as §2

[7] = tested on: rat cyclooxygenase 1; experiment: COX-1 level in carrageenan-injected paw (ELISA); assay type: in vivo; details: compounds 200 mg/kg i.p., indomethacin 10 mg/kg, mean ± SD
Description: as §1, §2

[8] = tested on: CRP; experiment: Serum CRP (ELISA) in carrageenan-injected rats; assay type: in vivo, rat; details: compounds 200 mg/kg i.p., indomethacin 10 mg/kg, mean ± SD
Description: as §1, §2

[9] = tested on: TNF-α; experiment: Serum TNF-α (ELISA) in carrageenan-injected rats; assay type: in vivo, rat; details: compounds 200 mg/kg i.p., indomethacin 10 mg/kg, mean ± SD
Description: as §1, §2

[10] = tested on: COX-2; experiment: In vitro colorimetric COX (ovine) inhibitor-screening assay, COX-2; assay type: biochemical; details: ovine COX-2, tested at 50, 100 and 150 µg/mL
Description: The test compounds’ ability to suppress COX-1 and COX-2 was evaluated using a colorimetric COX (ovine) inhibitor-screening method (Cayman Chemical, Item Number 760111). In brief, 150 μL of assay buffer, 10 μL of heme, 10 μL of enzyme (COX-1 or COX-2), and 10 μL of compound (1 mg/mL) make up the reaction mixture. In a final volume of […], the test compounds were evaluated at doses of 50, 100, and 150 μg/mL. The cyclooxygenase peroxidase component is used in the experiment. By monitoring the appearance of oxidized N, N, […] (TMPD) at 590 nm, the peroxidase activity is measured […]. […] The following formula was used to determine the % COX inhibition: The COX inhibition activity percentage is equal to (1 − T/C ×100), where T is the inhibitor well’s absorbance and C is the starting activity’s absorbance at 100% without the inhibitor well.

[11] = tested on: malondialdehyde (MDA); experiment: Paw tissue oxidative stress biomarker MDA; assay type: in vivo, rat; details: carrageenan rats, 200 mg/kg i.p.
Description: as §1, §2

[12] = tested on: rat paw tissue; experiment: Histopathological examination of paw tissue (HE); assay type: in vivo; details: carrageenan-injected paw; compounds 200 mg/kg i.p., indomethacin 10 mg/kg
Text: as §2

[13] = tested on: carrageenan-induced rat paw edema; experiment: Carrageenan-induced paw edema; assay type: in vivo; details: for inhibition of paw edema after 1 h / inhibition of paw edema after 2 h / inhibition of paw edema after 3 h: 200 mg/kg i.p.; for inhibition of paw edema after 1 h: 1 h after carrageenan; for inhibition of paw edema after 2 h: 2 h after carrageenan; for inhibition of paw edema after 3 h: 3 h after carrageenan; for inhibition of paw edema after 4 h: compounds 200 mg/kg i.p., indomethacin 10 mg/kg, 4 h after carrageenan
Text: Rats’ carrageenan-induced paw edema model was used to assess the novel synthesized drugs’ anti-inflammatory properties. A total of 180–190 g of male Wistar rats were used for the experiments. In the animal house at Sohag University in Sohag, Egypt, every animal was kept in careful laboratory conditions. After being weighed and divided into six groups at random, the animals are housed for a week to reduce stress and allow them to get used to the laboratory environment. The chemicals that were synthesized were administered intraperitoneally (i.p.) to rats at a dosage of 200 mg/kg. The control group received only vehicles. […] The rats were given a 0.2 mL sub-plantar injection of a 1% (w/v) suspension of carrageenan (made in PBS) in their right hind paw thirty minutes following the injection of synthesized compounds [33]. […] The % inhibition of paw edema was calculated by the following formula [34]:%Inhibition = ((Mean edema of control group − Mean edema of test compound)/(Mean edema of control group)) × 100.

[14] = listed as compound 3, 200 mg/kg

SMILES	SOD activity [1]	IL-1α [2]	GSH concentration [3]	IL-1β [4]	IL-6 [5]	COX-2 level [6]	COX-1 level [7]	CRP [8]	TNF-α [9]	COX-2 inhibition % (mean activity) [10]	MDA level [11]	histopathological findings of paw tissue (HE) [12]	inhibition of paw edema after 1 h [13]	inhibition of paw edema after 2 h [13]	inhibition of paw edema after 3 h [13]	inhibition of paw edema after 4 h [13]	also measured
NC1=NC2(CCCCCC2)n2nc(C(=O)Nc3ccc(S(N)(=O)=O)cc3)nc2N1 [Compound 1, 5′-Amino-N-(4-sulfamoylphenyl). -1′H-spiro[cycloheptane-1,7′-[1,2,4]triazolo[1,5-a][1,3,5] -triazine] -2′-carboxamide]	notable improvements	56.97 ± 0.79 ^b pg/mL	notable improvements	64.98 ± 0.30 ^b pg/mL	14.44 ± 0.26 ^b pg/mL	3.44 ± 0.30 ng/mL	4.31 ± 0.90 ng/mL	4.19 ± 0.28 ^b ng/mL	8.27 ± 0.19 ^b pg/mL	98%	notable improvements	mild inflammatory dermal edema	53.6%	65.74%	78.52%	96.31%	
CC1(C)CC(=O)CC2(C1)N=C(N)Nc1nc(C(=O)Nc3ccc(S(N)(=O)=O)cc3)nn12 (centres unmarked) [Compound 2]	notable improvements	62.82 ± 0.94 ^b pg/mL	notable improvements	77.98 ± 0.45 ^b pg/mL	16.14 ± 0.16 ^b pg/mL	4.10 ± 0.09 ng/mL	5.24 ± 0.09 ng/mL	3.02 ± 0.28 ^b ng/mL	9.38 ± 0.20 ^b pg/mL	98%	notable improvements	moderate edema				72.08%	
NC1=NC2(c3ccccc3Cc3ccccc32)n2nc(C(=O)Nc3ccc(S(N)(=O)=O)cc3)nc2N1 [Compound 3]		40.66 ± 0.43 ^b pg/mL	near-control values	60.38 ± 0.73 pg/mL	11.39 ± 0.23 pg/mL	2.22 ± 0.06 ng/mL	2.82 ± 0.08 ng/mL	2.20 ± 0.36 ^b ng/mL	7.16 ± 0.13 pg/mL	99%		normal dermis; also recorded: normal dermis without any lesion; also recorded: normal histological structure without edema or lesions	59.5%	79.93%	97.23%	99.69%	SOD activity ([1]; 200 mg/kg): near-control values; SOD activity [1, 14]: 38.48 ± 0.31 U/mg protein; IL-1β ([4]; listed as C3): 60.38 ± 0.73 ^b pg/mL; IL-6 ([5]; listed as C3): 11.39 ± 0.23 ^b pg/mL; TNF-α ([9]; listed as C3): 7.16 ± 0.13 ^b pg/mL; MDA level ([11]; 200 mg/kg): close to normal; MDA level [11, 14]: 35.71 ± 0.51 nmol/g tissue
